Data: publication PMC11217349, “Development of Nurr1 agonists from amodiaquine by scaffold hopping and fragment growing” (Communications Chemistry, 2024)
Several values for one entry are separate records, joined by “and”; a condition that tells them apart may be missing. Equal values may be shown once.

How the values were obtained:
NOR-1 = target: T1, NOR-1 (Homo sapiens, UniProt Q92570); assay: Gal4-NOR-1 hybrid reporter gene assay; assay type: cell-based; settings: 10 nM to 3 µM
T1 construct: chimeric receptors composed of the Gal4-DBD and the hinge region and LBD; expressed in transfected cells; host or cells: HEK293T
T1 sequence (Q92570 394-623 limits assumed): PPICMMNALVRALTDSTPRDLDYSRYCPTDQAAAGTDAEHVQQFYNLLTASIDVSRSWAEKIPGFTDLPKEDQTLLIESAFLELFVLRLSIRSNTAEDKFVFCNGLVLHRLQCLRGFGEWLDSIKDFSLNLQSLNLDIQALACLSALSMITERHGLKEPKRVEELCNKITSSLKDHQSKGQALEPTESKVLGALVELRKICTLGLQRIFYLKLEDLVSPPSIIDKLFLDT
Experimental: (§1) Nurr1 modulation was determined in a Gal4 hybrid reporter gene assay in HEK293T cells (German Collection of Microorganisms and Cell Culture GmbH, DSMZ) using pFR-Luc (Stratagene, La Jolla, CA, USA; reporter), pRL-SV40 (Promega, Madison, WI, USA; internal control) and pFA-CMV-hNurr1-LBD[14], coding for the hinge region and ligand binding domain of the canonical isoform of human Nurr1. […] After 24 h, the medium was changed to Opti-MEM without supplements, and cells were transiently transfected using Lipofectamine LTX reagent (Invitrogen, Carlsbad, CA, USA) according to the manufacturer’s protocol. Five hours after transfection, cells were incubated with the test compounds in Opti-MEM supplemented with penicillin (100 U/mL), streptomycin (100 μg/mL), and 0.1% DMSO for 16 h before luciferase activity was measured using the Dual-Glo Luciferase Assay System (Promega) according to the manufacturer’s protocol on a Tecan Spark luminometer (Tecan Deutschland GmbH, Crailsheim, Germany). Firefly luminescence was divided by Renilla luminescence and multiplied by 1000 resulting in relative light units (RLU) to normalize for transfection efficiency and cell growth. Fold activation was obtained by dividing the mean RLU of the test compound by the mean RLU of the untreated control. All samples were tested in at least three biologically independent experiments in duplicates. For dose-response curve fitting and calculation of EC50 values, the equation “[Agonist] vs. response -- Variable slope (four parameters)” was used in GraphPad Prism (version 7.00, GraphPad Software, La Jolla, CA, USA). Selectivity profiling was performed with identical procedures using pFA-CMV-Nur77-LBD[14], pFA-CMV-NOR-1-LBD[14], pFA-CMV-THRα-LBD[51], pFA-CMV-RARα-LBD[52], pFA-CMV-PPARα-LBD[53], pFA-CMV-PPARγ-LBD[53], pFA-CMV-PPARδ-LBD[53], pFA-CMV-LXRα-LBD[54], pFA-CMV-FXR-LBD[55] and pFA-CMV-hRXRα-LBD[56].

[1] = target: T2, Nurr1-RXR heterodimer (DR5) (Homo sapiens, UniProt P43354); assay: Full-length Nurr1 reporter gene assay (DR5); assay type: cell-based; settings: 10 nM to 3 µM
T2 construct: The full-length human nuclear receptor Nurr1 (pcDNA3.1-hNurr1-NE; Addgene plasmid #102363); host or cells: HEK293T
Experimental: Activation of full-length human Nurr1 was studied in transiently transfected HEK293T cells using the reporter plasmids pFR-Luc-NBRE[14], pFR-Luc-POMC[14] or pFR-Luc-DR5[14] each containing one copy of the respective human Nurr1 response element NBRE Nl3, NurRE, or DR5. […] After 24 h, the medium was changed to Opti-MEM without supplements, and cells were transiently transfected using Lipofectamine LTX reagent (Invitrogen) according to the manufacturer’s protocol. Five hours after transfection, cells were incubated with the test compounds in Opti-MEM supplemented with penicillin (100 U/mL), streptomycin (100 μg/mL) and 0.1% DMSO for 16 h before luciferase activity was measured using the Dual-Glo Luciferase Assay System (Promega) according to the manufacturer’s protocol on a Tecan Spark luminometer (Tecan Deutschland GmbH). Firefly luminescence was divided by Renilla luminescence and multiplied by 1000 resulting in relative light units (RLU) to normalize for transfection efficiency and cell growth. Fold activation was obtained by dividing the mean RLU of the test compound by the mean RLU of the untreated control. All samples were tested in at least three biologically independent experiments in duplicates. For dose-response curve fitting and calculation of EC50 values, the equation “[Agonist] vs. response -- Variable slope (four parameters)” was used in GraphPad Prism (version 7.00, GraphPad Software).

Nur77 = target: T3, Nur77 (Homo sapiens, UniProt P22736); assay: Gal4-Nur77 hybrid reporter gene assay; assay type: cell-based; settings: 10 nM to 3 µM
T3 construct: chimeric receptors composed of the Gal4-DBD and the hinge region and LBD; expressed in transfected cells; host or cells: HEK293T
Experimental: as §1

Nurr1 LBD = target: T4, Nurr1 LBD (Homo sapiens, UniProt P43354); assay: Isothermal titration calorimetry (ITC); assay type: binding; settings: 25 °C
T4 construct: Nurr1 LBD protein (5–30 µM, expressed as described previously[21]); made in house
Experimental: ITC experiments were conducted on an Affinity ITC instrument (TA Instruments, New Castle, DE) at 25 °C with a stirring rate of 75 rpm. Nurr1 LBD protein (5–30 µM, expressed as described previously[21]) in buffer (20 mM Tris pH 7.5, 100 mM NaCl, 5% glycerol) containing 1–4% DMSO was titrated with the test compounds (30–150 μM in the same buffer containing 1-4% DMSO) in 26 injections (1 × 1 µL, 25 × 3-4 μL) with an injection interval of 120-150 s. As control experiments, the test compounds were titrated to the buffer, and the buffer was titrated to the Nurr1 LBD protein under otherwise identical conditions. Results were analyzed using NanoAnalyze software (version 3.11.0, TA Instruments, New Castle, DE) with independent binding models.

[2] = target: T5, human Nurr1 (hinge region and ligand binding domain) (Homo sapiens, UniProt P43354); assay: Gal4-Nurr1 hybrid reporter gene assay; assay type: cell-based
T5 construct: expressed in transfected cells; host or cells: HEK293T
Experimental: as §1

[3] = system: full-length human Nurr1 (NBRE); set-up: method as in earlier work; settings: cited from earlier work
[4] = target: T6, human full-length Nurr1 monomer (NBRE) (Homo sapiens, UniProt P43354); assay: Full-length Nurr1 reporter gene assay (NBRE); assay type: cell-based; settings: 10 nM to 3 µM
T6 construct: The full-length human nuclear receptor Nurr1 (pcDNA3.1-hNurr1-NE; Addgene plasmid #102363); host or cells: HEK293T
From the text: (§2) Activation of full-length human Nurr1 was studied in transiently transfected HEK293T cells using the reporter plasmids pFR-Luc-NBRE[14], pFR-Luc-POMC[14] or pFR-Luc-DR5[14] each containing one copy of the respective human Nurr1 response element NBRE Nl3, NurRE, or DR5. The full-length human nuclear receptor Nurr1 (pcDNA3.1-hNurr1-NE; Addgene plasmid #102363) and, for DR5, RXRα (pSG5-hRXR)[57] were overexpressed. pRL-SV40 (Promega) was used for the normalization of transfection efficacy and to observe test compound toxicity. […] After 24 h, the medium was changed to Opti-MEM without supplements, and cells were transiently transfected using Lipofectamine LTX reagent (Invitrogen) according to the manufacturer’s protocol. Five hours after transfection, cells were incubated with the test compounds in Opti-MEM supplemented with penicillin (100 U/mL), streptomycin (100 μg/mL) and 0.1% DMSO for 16 h before luciferase activity was measured using the Dual-Glo Luciferase Assay System (Promega) according to the manufacturer’s protocol on a Tecan Spark luminometer (Tecan Deutschland GmbH). Firefly luminescence was divided by Renilla luminescence and multiplied by 1000 resulting in relative light units (RLU) to normalize for transfection efficiency and cell growth. Fold activation was obtained by dividing the mean RLU of the test compound by the mean RLU of the untreated control. All samples were tested in at least three biologically independent experiments in duplicates. For dose-response curve fitting and calculation of EC50 values, the equation “[Agonist] vs. response -- Variable slope (four parameters)” was used in GraphPad Prism (version 7.00, GraphPad Software).

[5] = target: T7, human full-length Nurr1 homodimer (NurRE) (Homo sapiens, UniProt P43354); assay: Full-length Nurr1 reporter gene assay (NurRE); assay type: cell-based; settings: 10 nM to 3 µM
T7 construct: The full-length human nuclear receptor Nurr1 (pcDNA3.1-hNurr1-NE; Addgene plasmid #102363); host or cells: HEK293T
From the text: as §2

HEK293T cells = assay: WST-8 cytotoxicity assay, HEK293T; assay type: cell-based, human; settings: for rel. absorbance (450 nm): HEK293T, WST-8, vs DMSO ctrl
Experimental: (§3) Each sample was prepared in four biologically independent repeats. After incubation for 24 h, the medium was refreshed and 10% water-soluble tetrazolinum salt (Cell Counting Kit-8, MedChemExpress) was added to assess metabolic activity. After 4 h, absorbance was measured at 450 nm using a Tecan Spark Cyto instrument (Tecan).

N27 rat neurons = assay: WST-8 cytotoxicity assay, N27; assay type: cell-based
Experimental: as §3

Nurr1 = system: Nurr1; set-up: method as in PMID 26124091; settings: read-out: EC50 (Nurr1 agonism); cited from earlier work

T5 sequence (P43354 360-595 limits assumed): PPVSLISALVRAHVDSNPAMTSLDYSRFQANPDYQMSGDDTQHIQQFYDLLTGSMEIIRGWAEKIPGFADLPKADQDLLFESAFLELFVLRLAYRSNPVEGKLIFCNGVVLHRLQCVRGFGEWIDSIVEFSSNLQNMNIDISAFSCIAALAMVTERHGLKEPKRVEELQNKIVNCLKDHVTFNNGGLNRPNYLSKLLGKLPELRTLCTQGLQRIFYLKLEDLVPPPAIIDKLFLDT
T7 sequence (P43354 whole entry): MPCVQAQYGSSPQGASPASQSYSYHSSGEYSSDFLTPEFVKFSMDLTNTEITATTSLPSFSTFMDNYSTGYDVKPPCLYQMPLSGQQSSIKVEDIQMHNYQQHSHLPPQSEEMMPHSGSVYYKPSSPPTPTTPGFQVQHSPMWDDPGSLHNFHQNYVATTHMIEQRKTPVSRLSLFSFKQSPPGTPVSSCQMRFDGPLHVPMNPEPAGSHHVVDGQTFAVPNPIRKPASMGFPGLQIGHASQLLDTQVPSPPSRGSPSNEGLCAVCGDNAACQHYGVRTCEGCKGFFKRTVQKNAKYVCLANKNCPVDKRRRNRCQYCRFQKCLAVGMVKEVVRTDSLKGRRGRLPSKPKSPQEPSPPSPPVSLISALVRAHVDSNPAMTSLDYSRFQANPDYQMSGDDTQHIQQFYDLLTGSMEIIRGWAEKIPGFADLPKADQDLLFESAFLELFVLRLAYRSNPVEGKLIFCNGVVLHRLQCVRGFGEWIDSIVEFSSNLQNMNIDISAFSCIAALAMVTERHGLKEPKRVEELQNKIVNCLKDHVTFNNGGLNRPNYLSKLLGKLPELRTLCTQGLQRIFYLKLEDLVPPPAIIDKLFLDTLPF
T2 sequence (P43354 whole entry): as above
T2 sequence (P19793 whole entry partner): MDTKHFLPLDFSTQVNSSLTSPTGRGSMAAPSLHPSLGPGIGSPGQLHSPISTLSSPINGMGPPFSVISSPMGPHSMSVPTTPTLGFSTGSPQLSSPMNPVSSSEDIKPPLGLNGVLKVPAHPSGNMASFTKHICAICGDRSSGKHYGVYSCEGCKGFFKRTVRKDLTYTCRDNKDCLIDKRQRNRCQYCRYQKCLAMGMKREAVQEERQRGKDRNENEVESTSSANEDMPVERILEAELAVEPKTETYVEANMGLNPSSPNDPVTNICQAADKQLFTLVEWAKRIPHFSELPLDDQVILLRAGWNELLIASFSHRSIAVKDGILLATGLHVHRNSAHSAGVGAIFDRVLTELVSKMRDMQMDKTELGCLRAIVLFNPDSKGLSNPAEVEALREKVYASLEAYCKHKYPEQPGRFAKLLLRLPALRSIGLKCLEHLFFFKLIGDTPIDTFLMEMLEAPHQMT
T6 sequence (P43354 whole entry): as the sequence (P43354 whole entry) above
T3 sequence (P22736 360-595 limits assumed): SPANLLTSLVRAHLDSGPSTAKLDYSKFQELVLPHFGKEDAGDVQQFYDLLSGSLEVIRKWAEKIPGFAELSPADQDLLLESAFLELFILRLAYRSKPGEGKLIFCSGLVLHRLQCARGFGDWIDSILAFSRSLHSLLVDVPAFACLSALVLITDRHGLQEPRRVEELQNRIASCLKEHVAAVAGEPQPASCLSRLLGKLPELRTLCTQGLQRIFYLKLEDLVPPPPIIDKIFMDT
T4 sequence (P43354 360-595 limits assumed): as the sequence (P43354 360-595 limits assumed) above

SMILES | activation of NOR1 (NOR-1) | activation of full-length Nurr1 on DR5 [1] | activation of Nur77 (Nur77) | Kd (Nurr1 LBD) (Nurr1 LBD) | activation of Nurr1 ([2]; Gal4 hybrid reporter, 10 nM to 3 µM) | cytotoxicity in reporter gene assays ([2]; concentrations higher than 3 µM, drop in renilla luciferase control, HEK293T) | EC50 [3] [µM] | activation of full-length Nurr1 on NBRE [4] | activation of full-length Nurr1 on NurRE [5] | toxicity (WST-8) (HEK293T cells; HEK293T cells, 24 h) | rel. absorbance (450 nm) (HEK293T cells; 10 µM) | rel. absorbance (450 nm) (HEK293T cells; 30 µM) [%] | rel. absorbance (450 nm) (N27 rat neurons; N27, 10 µM, WST-8, vs DMSO ctrl) | rel. absorbance (450 nm) / remaining metabolic activity (N27 rat neurons; N27, 30 µM, WST-8, vs DMSO ctrl) | toxicity (WST-8) (N27 rat neurons; N27 rat neurons, 24 h) | EC50 (Nurr1) [µM]
CC(C)(O)c1cccc(-c2ccc3nc(-c4ccc(Cl)cc4)cn3c2)c1 [SA00025, reference compound] | No activation | no effect and no | No activation | potential weak binding | No activation | considerably cytotoxic | 0.217 | no effect and no | no effect and no | – | – | – | – | – | – | –
CCN(CC)Cc1cc(Nc2ccnc3cc(Cl)ccc23)ccc1O [AQ, amodiaquine] | – | – | – | – | – | – | – | – | – | toxic | 75% and 70% | 47 | 37% and 39% and 40% | 21% and 22% and 23% | toxic | ~20
